Data from paper PMC4368200, “Triclabendazole Sulfoxide Causes Stage-Dependent Embryolethality in Zebrafish and Mouse In Vitro” (PLoS ONE, 2015).
Read-outs that look alike come from different tables or passages of the source. Marks after values point to notes of the source that are not given here.

What was measured:
[1] = test system: rat embryos explanted at GD 9.5; experiment: Postimplantation whole embryo culture (postWEC); parameters: species or system Sprague Dawley rats; key to Yolk sac circulation (median): 1 = few/abnormal vessels, 2 = delayed, 3 = complete vascularization; key to Morphological score: sum of structure scores; higher = more advanced differentiation; details: for Crown-rump length / Dysmorphogenic embryos / Morphological score / Somites number / Yolk sac circulation (median): 48 h; for postWEC LOAEC / postWEC NOAEC: GD 9.5-11.5, 48 h; for Teratogenic/dysmorphogenic potency, times lower than ABZ: postimplantation rodent embryos
Method: Nulliparous female rats, which were checked to be in the oestrus phase of the oestrous cycle, were housed with adult males (1:1) for 4 h, considering 2 h of light and 2 h of darkness. Mating was confirmed by the presence of sperm in vaginal smear, and the following 24 h were considered as gestational day 0 (GD 0).
Rat embryos were explanted and evaluated as described before with some variations. Briefly, embryos were explanted at GD 9.5 under sterile conditions. Two embryos were incorporated in flasks filled with 3.5 mL of culture medium which contained 20% of rat serum and 80% of serum mixture (Biochrom AG; Berlin, Germany). TCBZ, TCBZSO, ABZ and ABZSO were dissolved in dimethyl sulfoxide (DMSO; Sigma Aldrich Spain) and added to the culture medium to a final DMSO concentration of 0.1%. Culture flasks were oxygenated at the beginning of the culture with a gas mixture containing 12% O2 and after 38 h with a gas mixture containing 50% O2. Embryos were cultured at a temperature of 38°C, under rotation at a speed of 25 rpm (Noria R, Ovan Spain) for 48 h. After this period, embryos presenting yolk sac circulation and heartbeat were considered alive and were selected for further evaluation. The yolk sac circulation was evaluated according to the level of formation of blood vessels, giving a score of 1 in the cases in which few vessels were observed or the vascularization was abnormal, a score of 2 when a delay in vascularization was observed and 3 for complete vascularization, as previously described in [35]. Growth evaluation was assessed by crown-rump length and differentiation was evaluated by counting the number of somites and the morphological score. This score is the sum of the scores given to several embryonic structures depending on their differentiation stage, corresponding higher values with higher stages of differentiation. Furthermore, the percentage of dysmorphogenesis was calculated according to [36].
For the postWEC experiments, the selected concentrations were 140 μM, 278 μM and 556 μM for TCBZ and 267 μM, 666 μM and 932 μM for TCBZSO. The tested concentrations for ABZ analysis were 0.4 μM, 1.1 μM and 1.9 μM and for ABZSO were 3.4 μM, 9 μM, 12 μM, 14 μM and 16 μM.

[2] = parameters: method as in PMID 7905812; details: rabbits, single 10 mg/kg TCBZ dose; transformed to μM from ref 40; read-out: TCBZSO maximum plasma concentration (Cmax); cited from earlier work
[3] = parameters: method as in PMID 20128898; details: sheep, TCBZ 10 mg/kg; calculated from ref 41; read-out: TCBZSO Cmax; cited from earlier work
[4] = parameters: method as in PMID 21337234; details: cows, 12 mg/kg dose; calculated from ref 39; read-out: TCBZSO Cmax; cited from earlier work
[5] = Plasma Cmax in humans after therapeutical TCBZ dose (literature); format: in vivo; details: 10 mg/kg
[6] = parameters: method as in PMID 3824395; details: 200mg/kg dose; cited from earlier work

Compound: C[S+]([O-])c1nc2cc(Oc3cccc(Cl)c3Cl)c(Cl)cc2[nH]1 (centres unmarked) [TCBZSO, Triclabendazole sulfoxide]
- Crown-rump length ([1]; 267 μM): 3.4 ± 0.4 mm
- Dysmorphogenic embryos ([1]; 267 μM): 0%
- Morphological score ([1]; 267 μM): 37.9 ± 2.8
- Somites number ([1]; 267 μM): 26.6 ± 1.6
- Yolk sac circulation (median) ([1]; 267 μM): 3.0
- Frequency of dysmorphogenesis: Branchial bars ([1]; 666 µM): 11.1%
- Frequency of dysmorphogenesis: Head ([1]; 666 µM): 33.3%
- Frequency of dysmorphogenesis: Optic vesicles ([1]; 666 µM): 33.3%
- Frequency of dysmorphogenesis: Yolk sac ([1]; 666 µM): 33.3%
- Crown-rump length ([1]; 666 μM): 3.1 ± 0.7 mm
- Dysmorphogenic embryos ([1]; 666 μM): 55.6 ^* %
- Morphological score ([1]; 666 μM): 30.8 ± 7.1
- Somites number ([1]; 666 μM): 25.1 ± 2.1
- Yolk sac circulation (median) ([1]; 666 μM): 3.0 ^*
- Frequency of dysmorphogenesis: Branchial bars ([1]; 932 µM): 100%
- Frequency of dysmorphogenesis: Flexion ([1]; 932 µM): 87.5%
- Frequency of dysmorphogenesis: Head ([1]; 932 µM): 75%
- Frequency of dysmorphogenesis: Limbs ([1]; 932 µM): 12.5%
- Frequency of dysmorphogenesis: Optic vesicles ([1]; 932 µM): 62.5%
- Frequency of dysmorphogenesis: Otic vesicles ([1]; 932 µM): 25%
- Frequency of dysmorphogenesis: Yolk sac ([1]; 932 µM): 100%
- Crown-rump length ([1]; 932 μM): 2.3 ± 0.5 mm
- Dysmorphogenic embryos ([1]; 932 μM): 100 ^* %
- Morphological score ([1]; 932 μM): 20.3 ± 2.7
- Yolk sac circulation (median) ([1]; 932 μM): 1.0 ^*
- postWEC LOAEC [1]: 666 µM
- postWEC NOAEC [1]: 267 µM
- Teratogenic potency, times less potent than parent compound TCBZ ([1]; postWEC): 2.5 times
- Cmax [2]: 33 µM
- Cmax [3]: 37.3 µM
- Cmax [4]: 71.3 µM

Compound: CSc1nc2cc(Cl)c(Oc3cccc(Cl)c3Cl)cc2[nH]1 [TCBZ, 5-chloro-6-(2,3-dichlorophenoxy)-2-(methylthio)benzimidazole]
- Crown-rump length ([1]; 140 μM): 3.5 ± 0.2 mm
- Dysmorphogenic embryos ([1]; 140 μM): 0%
- Morphological score ([1]; 140 μM): 39.0 ± 1.5
- Somites number ([1]; 140 μM): 26.9 ± 1.1
- Yolk sac circulation (median) ([1]; 140 μM): 3.0
- Frequency of dysmorphogenesis: Branchial bars ([1]; 278 µM): 25%
- Frequency of dysmorphogenesis: Flexion ([1]; 278 µM): 12.5%
- Frequency of dysmorphogenesis: Head ([1]; 278 µM): 12.5%
- Frequency of dysmorphogenesis: Otic vesicles ([1]; 278 µM): 12.5%
- Frequency of dysmorphogenesis: Yolk sac ([1]; 278 µM): 62.5%
- Crown-rump length ([1]; 278 μM): 3.2 ± 0.5 mm
- Dysmorphogenic embryos ([1]; 278 μM): 62.5 ^* %
- Morphological score ([1]; 278 μM): 35.1 ± 5.9
- Somites number ([1]; 278 μM): 25.7 ± 2.0
- Yolk sac circulation (median) ([1]; 278 μM): 1.0 ^*
- Frequency of dysmorphogenesis: Branchial bars ([1]; 556 µM): 100%
- Frequency of dysmorphogenesis: Flexion ([1]; 556 µM): 50%
- Frequency of dysmorphogenesis: Head ([1]; 556 µM): 75%
- Frequency of dysmorphogenesis: Heart ([1]; 556 µM): 12.5%
- Frequency of dysmorphogenesis: Optic vesicles ([1]; 556 µM): 37.5%
- Frequency of dysmorphogenesis: Yolk sac ([1]; 556 µM): 100%
- Crown-rump length ([1]; 556 μM): 2.6 ± 0.6 mm
- Dysmorphogenic embryos ([1]; 556 μM): 100%
- Morphological score ([1]; 556 μM): 21.0 ± 3.0
- Yolk sac circulation (median) ([1]; 556 μM): 1.0 ^*
- postWEC LOAEC [1]: 278 µM
- postWEC NOAEC [1]: 140 µM
- Teratogenic/dysmorphogenic potency, times lower than ABZ [1]: approximately 250 times
- Teratogenic/dysmorphogenic potency, times lower than ABZ ([1]; listed as Triclabendazole): 250 times
- Plasma concentration, times lower than triclabendazole sulfoxide [5]: approximately 30 times
- Teratogenicity in vivo [6]: not teratogenic at a 200mg/kg dose [23]
